For 22 compounds, IC50 and inhibition results are on record in patent publication US10323038B2, “Pyrazole compounds and methods of making and using same” (ABIDE THERAPEUTICS, INC., priority 2015, dated 2019).

One assay has as its target FAAH (Mus musculus (Mouse), UniProt O08914). Kind of assay: In vitro competitive activity-based protein profiling, FAAH (mouse). The conditions noted are these: for inhibition at 1 µM: read-out: FAAH % inh. 1 μM (mouse). It counts as biochemical. The gist of the method: (§1)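 Gel-based read-out: fluorescence intensity of MAGL and FAAH bands after SDS-PAGE gave serine hydrolase activity. Proteomes at 1.0 mg/mL were pretreated 30 min at 37° C with inhibitor over a concentration range, then labelled 30 min with FP-Rh or HT-01 (stock 50 μM in DMSO).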

The next assay addresses MAGL (Mus musculus (Mouse), UniProt O35678). Kind of assay: In vitro competitive activity-based protein profiling, MAGL (mouse). In kind it is biochemical. The following applies: for inhibition at 1 µM: read-out: MAGL % inh. 1 μM (mouse). The method in brief:
as §1

Sequence of FAAH (O08914 whole entry): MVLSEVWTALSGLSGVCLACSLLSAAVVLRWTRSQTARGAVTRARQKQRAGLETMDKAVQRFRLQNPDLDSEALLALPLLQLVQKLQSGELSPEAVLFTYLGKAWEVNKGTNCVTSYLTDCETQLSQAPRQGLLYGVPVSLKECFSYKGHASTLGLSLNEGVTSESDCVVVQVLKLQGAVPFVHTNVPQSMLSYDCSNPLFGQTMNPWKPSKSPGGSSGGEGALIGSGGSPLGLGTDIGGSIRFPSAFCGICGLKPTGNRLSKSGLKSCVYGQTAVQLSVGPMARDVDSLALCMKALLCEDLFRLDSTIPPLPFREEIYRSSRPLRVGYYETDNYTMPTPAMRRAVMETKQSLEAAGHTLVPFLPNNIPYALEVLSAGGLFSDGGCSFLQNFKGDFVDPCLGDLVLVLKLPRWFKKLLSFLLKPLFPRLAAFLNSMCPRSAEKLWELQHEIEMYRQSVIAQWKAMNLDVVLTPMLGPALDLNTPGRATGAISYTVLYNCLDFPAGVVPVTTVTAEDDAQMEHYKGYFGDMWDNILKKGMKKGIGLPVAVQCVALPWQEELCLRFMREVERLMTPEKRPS
Sequence of MAGL (O35678 whole entry): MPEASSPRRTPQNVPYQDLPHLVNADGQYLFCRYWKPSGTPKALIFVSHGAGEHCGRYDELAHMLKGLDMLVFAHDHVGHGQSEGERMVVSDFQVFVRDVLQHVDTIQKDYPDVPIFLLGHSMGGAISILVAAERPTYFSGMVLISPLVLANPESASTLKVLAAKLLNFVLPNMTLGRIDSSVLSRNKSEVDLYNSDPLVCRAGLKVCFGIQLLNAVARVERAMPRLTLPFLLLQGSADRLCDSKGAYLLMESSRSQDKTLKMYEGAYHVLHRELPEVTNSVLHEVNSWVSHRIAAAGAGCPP

Consider `CC(=O)N(C)c1cnn(C(=O)N2CC3CN(Cc4cccc(N5CCCC5)c4)CC3C2)c1` (centres unmarked) [Example 119, N-methyl-N-(1-(5-(3-(pyrrolidin-1-yl)benzyl)octahydropyrrolo[3,4-c]pyrrole-2-carbonyl)-1H-pyrazol-4-yl)acetamide], for which, on FAAH, the IC50 (as a rule, the point on the concentration scale where inhibition reaches its midpoint) is no more than 100 nM and the inhibition at 1 µM is no less than 75%. Also, on MAGL, the IC50 was no more than 100 nM and the inhibition at 1 µM was no less than 75%.

Take `CC(=O)N(C)c1cnn(C(=O)N2CC3CN(Cc4cc(Cl)cc(N5CCN(C6CC6)CC5)c4)CC3C2)c1` (centres unmarked) [Example 120, N-(1-(5-(3-chloro-5-(4-cyclopropylpiperazin-1-yl)benzyl)octahydropyrrolo[3,4-c]pyrrole-2-carbonyl)-1H-pyrazol-4-yl)-N-methylacetamide]: on FAAH, the 50% inhibitory concentration (IC50) was no more than 100 nM and the inhibition at 1 µM was no less than 75%. At MAGL, the 50% inhibitory concentration (IC50) was no more than 100 nM and the inhibition at 1 µM was no less than 75%.

As for `CC(=O)N(C)c1cnn(C(=O)N2CC3CN(Cc4cccc(N5CCOCC5)c4)CC3C2)c1` (centres unmarked) [Example 121, N-methyl-N-(1-(5-(3-morpholinobenzyl)octahydropyrrolo[3,4-c]pyrrole-2-carbonyl)-1H-pyrazol-4-yl)acetamide], the results for the inhibition at 1 µM at FAAH and on MAGL were 50 to 75% and no less than 75%, respectively.

Regarding `CC(=O)N(C)c1cnn(C(=O)N2CC3CN(Cc4ccc(F)c(Cl)c4)CC3C2)c1` (centres unmarked) [Example 122, N-(1-(5-(3-chloro-4 fluorobenzyl)octahydropyrrolo[3,4-c]pyrrole-2-carbonyl)-1H-pyrazol-4-yl)-N-methylacetamide], on FAAH, the IC50 was no more than 100 nM and the inhibition at 1 µM was no less than 75%. Besides, at MAGL, the IC50 was 100 to 1000 nM and the inhibition at 1 µM was no less than 75%.

In the case of `CC(=O)N(C)c1cnn(C(=O)N2CC3CN(Cc4ccc(N5CCCC5)c(Cl)c4)CC3C2)c1` (centres unmarked) [Example 123, N-(1-(5-(3-chloro-4-(pyrrolidin-1-yl)benzyl)octahydropyrrolo[3,4-c]pyrrole-2-carbonyl)-1H-pyrazol-4-yl)-N-methylacetamide], at FAAH, the IC50 was no more than 100 nM and the inhibition at 1 µM is no less than 75%. Also, at MAGL, the IC50 is no more than 100 nM and the inhibition at 1 µM is no less than 75%.

For the compound `CC(=O)N(C)c1cnn(C(=O)N2CC3CN(Cc4ccc(C(F)(F)F)c(N5CCOCC5)c4)CC3C2)c1` (centres unmarked) [Example 124, N-methyl-N-(1-(5-(3-morpholino-4-(trifluoromethyl)benzyl)octahydropyrrolo[3,4-c]pyrrole-2-carbonyl)-1H-pyrazol-4-yl)acetamide], on FAAH, the IC50 was no more than 100 nM and the inhibition at 1 µM was no less than 75%. On MAGL, the 50% inhibitory concentration (IC50) is no more than 100 nM and the inhibition at 1 µM was no less than 75%.

As to `CC(=O)N(C)c1cnn(C(=O)N2CC3CN(Cc4cc(Cl)cc(N5CCOCC5)c4)CC3C2)c1` (centres unmarked) [Example 125, N-(1-(5-(3-chloro-5-morpholinobenzyl)octahydropyrrolo[3,4-c]pyrrole-2-carbonyl)-1H-pyrazol-4-yl)-N-methylacetamide], the IC50 at FAAH and on MAGL was no more than 100 nM throughout. The inhibition at 1 µM on FAAH and on MAGL was no less than 75% throughout.

Regarding `CC(=O)N(C)c1cnn(C(=O)N2CC3CN(Cc4cc(C(F)(F)F)ccc4C(F)(F)F)CC3C2)c1` (centres unmarked) [Example 126, N-(1-(5-(2,5-bis(trifluoromethyl)benzyl)octahydropyrrolo[3,4-c]pyrrole-2-carbonyl)-1H-pyrazol-4-yl)-N-methylacetamide], the inhibition at 1 µM on FAAH and on MAGL was no less than 75% throughout.

On to `CC(=O)N(C)c1cnn(C(=O)N2CC3CN(Cc4cc(N5CCCC5)ccc4C(F)(F)F)CC3C2)c1` (centres unmarked) [Example 127, N-methyl-N-(1-(5-(5-(pyrrolidin-1-yl)-2-(trifluoromethyl)benzyl)octahydropyrrolo[3,4-c]pyrrole-2-carbonyl)-1H-pyrazol-4-yl)acetamide], for which the inhibition at 1 µM at FAAH and on MAGL was no less than 75% each time.

On to `CC(=O)N(C)c1cnn(C(=O)N2CC3CN(Cc4cc(C(F)(F)F)ccc4N4CCCC4)CC3C2)c1` (centres unmarked) [Example 128, N-methyl-N-(1-(5-(2-(pyrrolidin-1-yl)-5-(trifluoromethyl)benzyl)octahydropyrrolo[3,4-c]pyrrole-2-carbonyl)-1H-pyrazol-4-yl)acetamide], for which the inhibition at 1 µM on FAAH and on MAGL was no less than 75% each time.

For `CC(=O)N(C)c1cnn(C(=O)N2CC3CN(Cc4ccc(Cl)c(N5CCOCC5)c4)CC3C2)c1` (centres unmarked) [Example 129, N-(1-(5-(4-chloro-3-morpholinobenzyl)octahydropyrrolo[3,4-c]pyrrole-2-carbonyl)-1H-pyrazol-4-yl)-N-methylacetamide], the inhibition at 1 µM at FAAH and at MAGL was no less than 75% each time.

Turning to `CC(=O)N(C)c1cnn(C(=O)N2CC3CN(Cc4ccc(C(F)(F)F)c(N5CCCC5)c4)CC3C2)c1` (centres unmarked) [Example 130, N-methyl-N-(1-(5-(3-(pyrrolidin-1-yl)-4-(trifluoromethyl)benzyl)octahydropyrrolo[3,4-c]pyrrole-2-carbonyl)-1H-pyrazol-4-yl)acetamide], on FAAH, the IC50 is no more than 100 nM and the inhibition at 1 µM is no less than 75%. Moreover, on MAGL, the IC50 is no more than 100 nM and the inhibition at 1 µM was no less than 75%.

Consider `CC(=O)N(C)c1cnn(C(=O)N2CC3CN(Cc4ccc(N5CCOCC5)cc4C(F)(F)F)CC3C2)c1` (centres unmarked) [Example 131, N-methyl-N-(1-(5-(4-morpholino-2-(trifluoromethyl)benzyl)octahydropyrrolo[3,4-c]pyrrole-2-carbonyl)-1H-pyrazol-4-yl)acetamide], for which, on FAAH, the IC50 was no more than 100 nM and the inhibition at 1 µM is no less than 75%. Further, at MAGL, the half-inhibitory concentration (IC50) is no more than 100 nM and the inhibition at 1 µM is no less than 75%.

With `CC(=O)N(C)c1cnn(C(=O)N2CC3CN(Cc4ccc(N5CCCC5)cc4Cl)CC3C2)c1` (centres unmarked) [Example 132, N-(1-(5-(2-chloro-4-(pyrrolidin-1-yl)benzyl)octahydropyrrolo[3,4-c]pyrrole-2-carbonyl)-1H-pyrazol-4-yl)-N-methylacetamide], the inhibition at 1 µM at FAAH and at MAGL was no less than 75% throughout.

With `CC(=O)N(C)c1cnn(C(=O)N2C[C@H]3C[C@@H](NCc4ccccc4Cl)C[C@H]3C2)c1` [Example 133, N-(1-(cis-5-(2-chlorobenzylamino)octahydrocyclopenta[c]pyrrole-2-carbonyl)-1H-pyrazol-4-yl)-N-methylacetamide], the inhibition at 1 µM at FAAH was no less than 75%; at MAGL it was 25 to 50%.

On to `CC(=O)N(C)c1cnn(C(=O)N2C[C@H]3C[C@@H](NCc4ccc(Cl)cc4)C[C@H]3C2)c1` [Example 135, N-(1-(cis-5-(4-chlorobenzylamino)octahydrocyclopenta[c]pyrrole-2-carbonyl)-1H-pyrazol-4-yl)-N-methylacetamide], for which the inhibition at 1 µM on FAAH and at MAGL was no less than 75% in each case.

Consider `CC(=O)N(C)c1cnn(C(=O)N2C[C@H]3C[C@H](NCc4ccccc4Cl)C[C@H]3C2)c1` [Example 136, N-(1-(trans-5-(2-chlorobenzylamino)octahydrocyclopenta[c]pyrrole-2-carbonyl)-1H-pyrazol-4-yl)-N-methylacetamide], for which, on FAAH, the IC50 lay within 100 to 1000 nM and the inhibition at 1 µM is no less than 75%. For the same compound, at MAGL, the IC50 fell in the range of 100 to 1000 nM and the inhibition at 1 µM was no less than 75%.

Consider `CC(=O)N(C)c1cnn(C(=O)N2C[C@H]3C[C@H](NCc4cccc(Cl)c4)C[C@H]3C2)c1` [Example 137, N-(1-(trans-5-(3-chlorobenzylamino)octahydrocyclopenta[c]pyrrole-2-carbonyl)-1H-pyrazol-4-yl)-N-methylacetamide], for which, at FAAH, the 50% inhibitory concentration (IC50) is 100 to 1000 nM and the inhibition at 1 µM is no less than 75%. Moreover, at MAGL, the IC50 was in the range of 100 to 1000 nM and the inhibition at 1 µM was no less than 75%.

On to `CC(=O)N(C)c1cnn(C(=O)N2C[C@H]3C[C@H](NCc4ccc(Cl)cc4)C[C@H]3C2)c1` [Example 138, N-(1-(trans-5-(4-chlorobenzylamino)octahydrocyclopenta[c]pyrrole-2-carbonyl)-1H-pyrazol-4-yl)-N-methylacetamide], for which the inhibition at 1 µM at FAAH and at MAGL was no less than 75% in each case.

For the compound `CC(=O)N(C)c1cnn(C(=O)N2C[C@H]3C[C@@H](N(C)Cc4ccccc4Cl)C[C@H]3C2)c1` [Example 139, N-(1-(cis-5-((2-chlorobenzyl)(methyl)amino)octahydrocyclopenta[c]pyrrole-2-carbonyl)-1H-pyrazol-4-yl)-N-methylacetamide], at FAAH, the IC50 lay within 100 to 1000 nM and the inhibition at 1 µM is no less than 75%. Also, on MAGL, the IC50 fell in the range of 1000 to 10000 nM and the inhibition at 1 µM was in the range of 25 to 50%.

Take `CC(=O)N(C)c1cnn(C(=O)N2C[C@H]3C[C@@H](N(C)Cc4cc(C(F)(F)F)ccc4C(F)(F)F)C[C@H]3C2)c1` [Example 140, N-(1-(cis-5-((2,5-bis(trifluoromethyl)benzyl)(methyl)amino)octahydrocyclopenta[c]pyrrole-2-carbonyl)-1H-pyrazol-4-yl)-N-methylacetamide]: the inhibition at 1 µM at FAAH and on MAGL was no less than 75% each time.

On to `CC(=O)N(C)c1cnn(C(=O)N2C[C@H]3C[C@@H](N(C)Cc4cccc(Cl)c4)C[C@H]3C2)c1` [Example 141, N-(1-(cis-5-((3-chlorobenzyl)(methyl)amino)octahydrocyclopenta[c]pyrrole-2-carbonyl)-1H-pyrazol-4-yl)-N-methylacetamide], for which the values for the IC50 on FAAH and on MAGL were no more than 100 nM and 100 to 1000 nM, respectively. The inhibition at 1 µM at FAAH is no less than 75%; on MAGL, 50 to 75%.
